Assay results reported in ChEMBL document CHEMBL2010683, “Discovery of the first small molecule inhibitor of human DDX3 specifically designed to target the RNA binding site: towards the next generation HIV-1 inhibitors” (Bioorg Med Chem Lett, 2012).
pEC50, pIC50: −log10 of the molar value.

Legend:
[1] = target: T1, ATP-dependent RNA helicase DDX1 (Homo sapiens, UniProt Q92499); assay: Inhibition of human recombinant DDX1 helicase activity expressed in Escherichia coli assessed as conversion of a 6-FAM-labeled double stranded RNA in to single stranded nucleic acid by laser scanning densitometric analysis
T1 sequence (Q92499 whole entry): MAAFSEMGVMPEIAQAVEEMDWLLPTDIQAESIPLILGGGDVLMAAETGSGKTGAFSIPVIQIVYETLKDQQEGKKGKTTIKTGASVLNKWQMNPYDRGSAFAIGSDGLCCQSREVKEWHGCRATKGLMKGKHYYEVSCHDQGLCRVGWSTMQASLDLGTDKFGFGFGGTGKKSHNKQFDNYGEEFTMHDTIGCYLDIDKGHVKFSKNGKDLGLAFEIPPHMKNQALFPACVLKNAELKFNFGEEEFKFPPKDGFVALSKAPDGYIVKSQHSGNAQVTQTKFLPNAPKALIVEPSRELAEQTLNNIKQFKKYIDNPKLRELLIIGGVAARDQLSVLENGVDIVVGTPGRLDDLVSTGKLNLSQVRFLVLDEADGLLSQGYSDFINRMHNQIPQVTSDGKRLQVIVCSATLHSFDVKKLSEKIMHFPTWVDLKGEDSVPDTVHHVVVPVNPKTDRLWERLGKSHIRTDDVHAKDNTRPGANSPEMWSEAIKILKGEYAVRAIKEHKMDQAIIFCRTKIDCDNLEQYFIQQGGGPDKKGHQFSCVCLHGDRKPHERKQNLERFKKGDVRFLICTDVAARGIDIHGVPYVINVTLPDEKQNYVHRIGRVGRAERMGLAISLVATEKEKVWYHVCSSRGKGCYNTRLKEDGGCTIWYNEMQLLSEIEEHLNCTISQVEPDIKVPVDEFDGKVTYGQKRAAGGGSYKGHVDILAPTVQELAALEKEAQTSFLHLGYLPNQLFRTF

[2] = Inhibition of Hepatitis C virus NS3 helicase expressed in Escherichia coli assessed as conversion of a 6-FAM-labeled double stranded RNA in to single stranded nucleic acid by laser scanning densitometric analysis; parameters: species or system Hepacivirus hominis
[3] = target: T2, ATP-dependent RNA helicase DDX3X (Homo sapiens, UniProt O00571); assay: Inhibition of human recombinant DDX3 helicase activity expressed in Escherichia coli assessed as conversion of a 6-FAM-labeled double stranded RNA in to single stranded nucleic acid by laser scanning densitometric analysis
Target sequence in this assay (O00571 whole entry): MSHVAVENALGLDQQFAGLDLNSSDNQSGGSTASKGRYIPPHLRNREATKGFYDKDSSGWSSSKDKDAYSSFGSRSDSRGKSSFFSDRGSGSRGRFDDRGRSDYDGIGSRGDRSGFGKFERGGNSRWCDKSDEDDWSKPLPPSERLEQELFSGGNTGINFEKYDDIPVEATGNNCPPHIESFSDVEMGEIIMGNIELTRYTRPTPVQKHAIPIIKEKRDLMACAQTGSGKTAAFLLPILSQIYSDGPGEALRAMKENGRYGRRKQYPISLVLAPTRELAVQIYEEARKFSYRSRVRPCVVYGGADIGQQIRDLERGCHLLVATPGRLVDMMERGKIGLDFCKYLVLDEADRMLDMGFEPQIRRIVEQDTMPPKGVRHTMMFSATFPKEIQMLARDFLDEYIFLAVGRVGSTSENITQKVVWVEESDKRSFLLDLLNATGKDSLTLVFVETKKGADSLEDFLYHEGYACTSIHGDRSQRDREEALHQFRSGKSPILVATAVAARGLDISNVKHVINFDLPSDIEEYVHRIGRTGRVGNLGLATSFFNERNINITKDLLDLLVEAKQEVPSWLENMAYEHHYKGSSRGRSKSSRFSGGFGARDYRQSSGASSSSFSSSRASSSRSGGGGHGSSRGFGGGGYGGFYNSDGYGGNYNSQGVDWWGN

[4] = target: T2, ATP-dependent RNA helicase DDX3X; assay: Inhibition of human recombinant DDX3 ATPase activity expressed in Escherichia coli assessed as [gamma-32P] ATP hydrolysis after 5 mins by densitometric analysis
Target sequence in this assay (O00571 whole entry): as above

[5] = target: T2, ATP-dependent RNA helicase DDX3X
Target sequence in this assay (O00571 2-662 limits assumed): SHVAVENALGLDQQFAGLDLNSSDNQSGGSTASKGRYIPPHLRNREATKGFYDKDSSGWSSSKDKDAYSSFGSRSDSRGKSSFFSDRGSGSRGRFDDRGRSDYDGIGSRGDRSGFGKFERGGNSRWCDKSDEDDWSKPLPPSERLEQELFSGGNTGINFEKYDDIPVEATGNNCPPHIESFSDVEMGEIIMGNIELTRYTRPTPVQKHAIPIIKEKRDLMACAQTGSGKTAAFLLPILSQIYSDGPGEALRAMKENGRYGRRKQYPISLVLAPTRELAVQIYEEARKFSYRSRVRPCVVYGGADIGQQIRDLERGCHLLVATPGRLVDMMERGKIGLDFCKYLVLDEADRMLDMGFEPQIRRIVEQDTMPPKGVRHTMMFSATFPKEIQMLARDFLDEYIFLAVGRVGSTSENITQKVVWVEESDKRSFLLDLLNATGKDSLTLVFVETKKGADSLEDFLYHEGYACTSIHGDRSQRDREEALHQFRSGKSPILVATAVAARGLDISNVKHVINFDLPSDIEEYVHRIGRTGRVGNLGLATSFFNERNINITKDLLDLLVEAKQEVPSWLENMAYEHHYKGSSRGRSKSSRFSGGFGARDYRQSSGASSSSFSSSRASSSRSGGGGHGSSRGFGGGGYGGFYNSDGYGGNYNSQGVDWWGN
Description: Competitive inhibition of human recombinant DDX3 expressed in Escherichia coli using 100 nM double strand 18/36mer RNA substrate by PAGE analysis

[6] = system: Human immunodeficiency virus 1; assay: Antiviral activity against multidrug-resistant HIV1 infected in phytohemagglutininin-P stimulated human PBMC cells assessed as inhibition of viral replication after 72 hrs post infection; assay type: functional, organism-based; settings: Human immunodeficiency virus 1, PBMC
[7] = target: T2, ATP-dependent RNA helicase DDX3X; remark: listed apart in the source
Target sequence in this assay (O00571 2-662 limits assumed): as above
Description: Competitive inhibition of human recombinant DDX3 expressed in Escherichia coli using 50 nM double strand 18/36mer RNA substrate by PAGE analysis

[8] = Selectivity ratio of CC50 for human PBMC cells to EC50 for multidrug-resistant HIV1 infected in phytohemagglutininin-P-stimulated human PBMC cells; assay type: ADME, cell-based; settings: read-out: Ratio CC50/EC50
[9] = Cytotoxicity against human PBMC cells assessed as cell viability after 72 hrs by MTS assay; assay type: cell-based
[10] = target: T2, ATP-dependent RNA helicase DDX3X; remark: listed apart in the source
Target sequence in this assay (O00571 2-662 limits assumed): as above
Description: Competitive inhibition of human recombinant DDX3 expressed in Escherichia coli using 25 nM double strand 18/36mer RNA substrate by PAGE analysis

SMILES	pIC50 [1]	pIC50 [2]	pIC50 [3]	pIC50 [4]	ID50 [5] [µM]	pEC50 [6]	ID50 [7] [µM]	selectivity ratio [8]	CC50 at 72 h [9] [µM]	ID50 [10] [µM]
Cc1ccccc1NC(=O)Nc1cccc(N)c1	< 3.30	< 3.30	5.30	4.40	950	4.82	435	10	100	4.5
O=C(Nc1cccc([N+](=O)[O-])c1)Nc1cccc([N+](=O)[O-])c1	< 3.30	< 3.30		< 3.00						
Cc1ccccc1NC(=O)Nc1cccc([N+](=O)[O-])c1	< 3.30	< 3.30		4.70		5.00		10	100	

Now from value to molecule, other results behind:

pIC50 [1]	pIC50 [2]	pIC50 [3]	pIC50 [4]	SMILES	ID50 [5] [µM]	pEC50 [6]	ID50 [7] [µM]	selectivity ratio [8]	CC50 at 72 h [9] [µM]	ID50 [10] [µM]
< 3.30	< 3.30	4.38	< 3.00	O=C(Nc1ccc(-c2nc3ccccc3[nH]2)cc1)c1cc2ccccc2o1						
< 3.30	< 3.30	5.22	< 3.00	Cc1[nH]c2ccccc2c1C1=CC(c2ccccc2)=NN=C(c2ccccc2)C1						
< 3.30	< 3.30	4.19	4.77	Cc1ccccc1NC(=O)Nc1cccc(NC(=O)Nc2ccccc2C)c1						
< 3.30	< 3.30		< 3.00	Nc1cccc(NC(=O)Nc2cccc(N)c2)c1						
